What was measured:
[1] = tested on: Hsp70 species from SKBr3 cancer cell extracts; assay: Hsp70 competition assay using YK55 beads, SKBr3 extracts; format: binding, human
Procedure: FIG. 14. YK5 has a higher affinity for tumor Hsp70s and selectively kills cancer cells. (a-c) Cells were treated with the indicated concentrations of inhibitors for the times presented, and metabolically viable cells by Alamar blue uptake as described in Methods (a). Molecular markers of apoptosis (PARP and caspase-3 cleavage) were analyzed in cells treated for 24 h with indicated concentrations of inhibitors, by western blotting (b, c). Morphology of cells treated for 24 h with vehicle or the indicated inhibitors was analyzed by light microscopy (c). (d) Extracts (500 μg) were incubated overnight with beads containing D-biotin (75 μM) or the indicated concentrations of YK55 added to 50 μl streptavidin beads. HS=heat shocked. (e) SKBr3 (200 μg) and MRC-5 (400 μg) extracts and recombinant human Hsp70 (2 μg) were incubated for 3 h with the indicated concentrations with YK5, followed by precipitation of Hsp70 complexes on YK55-beads (50 μM YK55 added to 50 μl streptavidin beads). Data obtained from three independent experiments were graphed (right). Points, mean; bars, s.d.
In a second experiment, the ability of soluble YK5 to compete YK55-binding to normal and cancer cell Hsp70 species were tested (FIG. 14e). […] Interaction of YK5 was even weaker with recombinant human Hsp70 (FIG. 14e).
Hsp70 Competition Assay Using the YK55 Beads. […]

[2] = tested on: PBLs, CCD18Co and MRC-5 normal cells; assay: Cytotoxicity in normal cells; format: cell-based
Procedure: FIG. 14. YK5 has a higher affinity for tumor Hsp70s and selectively kills cancer cells. (a-c) Cells were treated with the indicated concentrations of inhibitors for the times presented, and metabolically viable cells by Alamar blue uptake as described in Methods (a). Molecular markers of apoptosis (PARP and caspase-3 cleavage) were analyzed in cells treated for 24 h with indicated concentrations of inhibitors, by western blotting (b, c). Morphology of cells treated for 24 h with vehicle or the indicated inhibitors was analyzed by light microscopy (c). […]
Because Hsp70 assists in house-keeping functions of normal cells, such as folding of newly synthesized polypeptides, refolding of misfolded proteins, and translocation of proteins through biological membranes, it remains unclear whether pharmacologic interventions which target both Hsp70 and Hsc70 isoforms, such as YK5, are non-toxic to these cells. To address this matter, the cytotoxic effect of YK5 in a panel of normal cells was evaluated, namely peripheral blood leukocytes (PBLs) obtained from healthy blood donors, and cultured normal fibroblasts, such as the colon cells CCD18Co and the lung MRC-5 (FIG. 14a-c). […]
Growth Inhibition Assay. Antiproliferative effects of inhibitors were evaluated using the dye Alamar blue. […]

## C=CC(=O)Nc1cc(N)nc(Sc2c(OC)nc(N3CCN(C)CC3)nc2OC)n1 [YK5, N-(6-amino-2-(4,6-dimethoxy-2-(4-methylpiperazin-1-yl)pyrimidin-5-ylthio)pyrimidin-4-yl)acrylamide]
[1]
  concentration competing binding of YK55-beads to Hsp70: low micromolar concentrations
[2]
  cell death in normal cells: minimal

Source: patent US9567318B2, “Substituted pyrimidine compounds and uses thereof” (Memorial Sloan-Kettering Cancer Center, priority 2009, dated 2017)
